Reference: US11993591B2, “Chromen-4-one derivatives for the treatment and prophylaxis of hepatitis B virus disease” (Hoffmann-La Roche Inc., priority 2018, dated 2024)

test system: HBV cccDNA (HBeAg level) in HepDES19 cells; test: Engineered HepDES19 primary screen assay (HBeAg as surrogate marker for cccDNA); type: cell-based; settings: Hepatitis B virus, HepDES19, 120 h
Description: The assay was employed to screen for novel cccDNA inhibitors. HepDES19 is a cccDNA-producing cell line. In this cell line, HBeAg in the cell culture supernatant as surrogate marker, as HBeAg production depends on cccDNA level and activity. HepDES19 is an engineered cell line which contains a 1.1 unit length HBV genome, and pgRNA transcription from the transgene is controlled by Tetracycline (Tet). In the absence of Tet, pgRNA transcription will be induced, but HBV e antigen (HBeAg) could not be produced from this pgRNA due to very short leader sequence before the HBeAg start codon and the start codon is disrupted. Only after cccDNA is formed, the missing leader sequence and start codon mutation would be restored from the 3′-terminal redundancy of pgRNA, and then HBeAg could be synthesized. Therefore, HBeAg could be used as a surrogate marker for cccDNA (Zhou, T. et al., Antiviral Res. (2006), 72(2), 116-124; Guo, H. et al., J. Virol. (2007), 81(22), 12472-12484).
HepDES19 cells were seeded at 2×10^6 cells per T150 flask and cultured with the culture medium (Dulbecco's Modified Eagle Medium: Nutrient Mixture F-12 [DMEM-F12, Gibco Cat. 11320-82], 10% Fetal Bovine Serum [FBS, Clontech Cat. 631101], 0.1 mM Non-Essential Amino Acids Solution [NEAA, Gibco Cat. 11140-050], 50 μg/mL Penicillin-Streptomycin [PS, Invitrogen Cat. 15140-163], 500 μg/mL Geneticin [G418, Invitrogen Cat. 10131-027]) containing 3 μg/mL Tet (Sigma, Cat. 87128) for 5 days. Cells were then seeded at 4×10^6 cells per T150 in the same culture medium as described above in the absence of Tet for 8 days. Cells were then harvested and frozen at density of 2×10^6 cells per mL. For compound testing, the frozen cells were thawed and seeded into 96-well plates at a density of 6×10^4 cells per well. At 24 hours after seeding, half log serial dilutions of compounds made with Dimethyl sulfoxide (DMSO, Sigma, Cat. D2650) were further diluted with the same culture medium as described above before they were added to the cells to reach desired final compound concentrations and 1% DMSO concentration. Plates were then incubated at 37° C. for another 5 days before measurement of HBeAg level and cell viability. Intracellular HBeAg level were measured with enzyme-linked immunosorbent assay (ELISA) kit (Shanghai Kehua Diagnostic Medical Products Co., Ltd). Cell viability was assessed using Cell Counting Kit-8 (Donjindo, Cat. CK04-20). IC50 values were derived from the dose-response curve using 4 parameter logistic curve fit method.
The compounds of the present invention were tested for their capacity to inhibit extracellular HBeAg level as described herein.

Row | SMILES | IC50 [µM]
1 | Cc1cc(Cl)ccc1NC(=O)c1cc(=O)c2cccc(Cl)c2o1 [Example 8, 8-chloro-N-(4-chloro-2-methylphenyl)-4-oxo-chromene-2-carboxamide] | 0.32
2 | O=C(O)CCCOc1cc(Cl)ccc1NC(=O)c1cc(=O)c2cc(Cl)cc(Cl)c2o1 [Example 11, 4-(5-chloro-2-(6,8-dichloro-4-oxo-chromene-2-carboxamido)phenoxy)butanoic Acid] | 3.12
3 | O=C(c1cc(=O)c2cccc(Cl)c2o1)N1CCc2cc(Br)ccc2C1 [Example 17, 2-(6-bromo-1,2,3,4-tetrahydroisoquinoline-2-carbonyl)-8-chloro-chromen-4-one] | 10.8
4 | O=C(O)COc1cc(Cl)ccc1NC(=O)c1cc(=O)c2cccc(Cl)c2o1 [Example 20, 2-(5-chloro-2-(8-chloro-4-oxo-chromene-2-carboxamido)phenoxy)acetic Acid] | 50
5 | COC(=O)c1ccc(C)c(NC(=O)c2cc(=O)c3cccc(Cl)c3o2)c1 [Example 21, Methyl 3-(8-chloro-4-oxo-chromene-2-carboxamido)-4-methylbenzoate] | 11
6 | O=C(O)COCCOc1cc(Cl)ccc1NC(=O)c1cc(=O)c2cc(Cl)cc(Cl)c2o1 [Example 22, 2-(2-(5-chloro-2-(6,8-dichloro-4-oxo-chromene-2-carboxamido)phenoxy)ethoxy)acetic Acid] | 11.9
7 | Cc1cc(NC(=O)c2cc(=O)c3cccc(Cl)c3o2)ncc1Br [Example 23, N-(5-bromo-4-methylpyridin-2-yl)-8-chloro-4-oxo-chromene-2-carboxamide] | 11.9
8 | O=C(O)COCCOc1cc(Cl)ccc1NC(=O)c1cc(=O)c2cccc(Cl)c2o1 [Example 24, 2-(2-(5-chloro-2-(8-chloro-4-oxo-chromene-2-carboxamido)phenoxy)ethoxy)acetic Acid] | 13.9
9 | COC(=O)c1cc(Cl)ccc1NC(=O)c1cc(=O)c2cccc(Cl)c2o1 [Example 25, Methyl 5-chloro-2-(8-chloro-4-oxo-chromene-2-carboxamido)benzoate] | 16.2
10 | COC(=O)c1ccc(CNC(=O)c2cc(=O)c3cccc(Cl)c3o2)cc1 [Example 26, Methyl 4-((8-chloro-4-oxo-chromene-2-carboxamido)methyl)benzoate] | 20.6
11 | COC(=O)c1ccc(NC(=O)c2cc(=O)c3cccc(Cl)c3o2)c(C)c1 [Example 27, Methyl 4-(8-chloro-4-oxo-chromene-2-carboxamido)-3-methylbenzoate] | 23.4
12 | O=C(c1cc(=O)c2cccc(Cl)c2o1)N1CCc2cccc(Cl)c2C1 [Example 28, 8-chloro-2-(8-chloro-3,4-dihydro-1H-isoquinoline-2-carbonyl)chromen-4-one] | 24.3
13 | CC(NC(=O)c1cc(=O)c2cccc(Cl)c2o1)c1ccc(Br)cc1 (stereo not shown) [Example 29, N-(1-(4-bromophenyl)ethyl)-8-chloro-4-oxo-chromene-2-carboxamide] | 24.9
14 | Cc1cc(O)ccc1NC(=O)c1cc(=O)c2cccc(Cl)c2o1 [Example 30, 8-chloro-N-(4-hydroxy-2-methylphenyl)-4-oxo-chromene-2-carboxamide] | 25.9
15 | O=C(c1cc(=O)c2cccc(Cl)c2o1)N1Cc2cccc(Br)c2C1 [Example 31, 2-(4-bromoisoindoline-2-carbonyl)-8-chloro-chromen-4-one] | 26.8
16 | COc1cc(Br)cnc1NC(=O)c1cc(=O)c2cccc(Cl)c2o1 [Example 32, N-(5-bromo-3-methoxypyridin-2-yl)-8-chloro-4-oxo-chromene-2-carboxamide] | 33.7
17 | O=C(c1cc(=O)c2cccc(Cl)c2o1)N1CCCc2ccc([N+](=O)[O-])cc21 [Example 33, 8-chloro-2-(7-nitro-3,4-dihydro-2H-quinoline-1-carbonyl)chromen-4-one] | 35.3
18 | O=C(Nc1ccc(Cl)cc1OCCOC1CC(C(=O)O)C1)c1cc(=O)c2cccc(Cl)c2o1 (stereo not shown) [Example 34, 3-(2-(5-chloro-2-(8-chloro-4-oxo-chromene-2-carboxamido)phenoxy)ethoxy)cyclobutane-1-carboxylic Acid] | 44.6
19 | CCOC(=O)c1nnc(NC(=O)c2cc(=O)c3cccc(Cl)c3o2)s1 [Example 35, Ethyl 5-(8-chloro-4-oxo-chromene-2-carboxamido)-1,3,4-thiadiazole-2-carboxylate] | 44.6

Row | SMILES | IC50 [µM]
20 | COC(=O)c1cccc(COC2CC3CCC(C2)N3c2cc(=O)c3cccc(Cl)c3o2)c1 (stereo not shown) [Example 41, Methyl 3-(((8-(8-chloro-4-oxo-chromen-2-yl)-8-azabicyclo[3.2.1]octan-3-yl)oxy)methyl)benzoate] | 3.99
21 | COc1ccc(CNc2oc3c(Cl)cccc3c(=O)c2I)cc1 [Example 42, 8-chloro-3-iodo-2-((4-methoxybenzyl)amino)-chromen-4-one] | 4.34
22 | COc1ccc2c(c1)CN(c1cc(=O)c3cccc(Cl)c3o1)C2=O [Example 43, 2-(8-chloro-4-oxo-chromen-2-yl)-5-methoxyisoindolin-1-one] | 4.78
23 | COc1ccc2c(c1)CCN(c1cc(=O)c3cccc(Cl)c3o1)C2=O [Example 44, 2-(8-chloro-4-oxo-chromen-2-yl)-6-methoxy-3,4-dihydroisoquinolin-1-one] | 5.44
24 | O=c1cc(N2CCN(c3ccccc3)CC2)oc2c(Cl)cc(F)cc12 [Example 45, 8-chloro-6-fluoro-2-(4-phenylpiperazin-1-yl)-chromen-4-one] | 8.58
25 | O=c1c(I)c(-n2ccc(OCc3ccccc3)cc2=O)oc2c(Cl)cccc12 [Example 46, 4-benzyloxy-1-(8-chloro-3-iodo-4-oxo-chromen-2-yl)pyridin-2-one] | 9.66
26 | O=c1cc(N2CC3(CC(O)C3)C2)oc2c(Cl)cccc12 [Example 47, 8-chloro-2-(6-hydroxy-2-azaspiro[3.3]heptan-2-yl)chromen-4-one] | 10.7
27 | COc1ccc(CN(C)c2cc(=O)c3cccc(Cl)c3o2)cc1 [Example 48, 8-chloro-2-((4-methoxybenzyl)(methyl)amino)-chromen-4-one] | 12.1
28 | O=c1cc(N2CCC(c3ccccc3)CC2)oc2c(Cl)cc(F)cc12 [Example 49, 8-chloro-6-fluoro-2-(4-phenylpiperidin-1-yl)-chromen-4-one] | 12.4
29 | O=C(O)C1CC(OCCOc2ccc(C3CCN(c4cc(=O)c5cc(F)cc(Cl)c5o4)CC3)cc2)C1 (stereo not shown) [Example 50, 3-(2-(4-(1-(8-chloro-6-fluoro-4-oxo-chromen-2-yl)piperidin-4-yl)phenoxy)ethoxy)cyclobutane-1-carboxylic Acid] | 14.1
30 | O=c1cc(N2C3CCC2CC(O)C3)oc2c(Cl)cccc12 (stereo not shown) [Example 51, 8-chloro-2-(3-hydroxy-8-azabicyclo[3.2.1]octan-8-yl)-chromen-4-one] | 14.8
31 | COc1ccc(CNc2cc(=O)c3cccc(Cl)c3o2)cc1 [Example 52, 8-chloro-2-((4-methoxybenzyl)amino)-chromen-4-one] | 15
32 | COC(=O)c1cccc(N2CCN(c3cc(=O)c4cccc(Cl)c4o3)CC2)c1 [Example 53, Methyl 3-(4-(8-chloro-4-oxo-chromen-2-yl)piperazin-1-yl)benzoate] | 15
33 | COC(=O)C1CC(OCCOc2ccc3c(c2)C(=O)N(c2cc(=O)c4cccc(Cl)c4o2)C3)C1 (stereo not shown) [Example 54, Methyl 3-(2-((2-(8-chloro-4-oxo-chromen-2-yl)-3-oxoisoindolin-5-yl)oxy)ethoxy)cyclobutanecarboxylate] | 16
34 | COc1ccc2c(c1)C(=O)N(c1cc(=O)c3cccc(Cl)c3o1)C2 [Example 55, 2-(8-chloro-4-oxo-chromen-2-yl)-6-methoxyisoindolin-1-one] | 16.7
35 | CN(Cc1ccc(OCCOC2CC(C(=O)O)C2)cc1)c1cc(=O)c2cccc(Cl)c2o1 (stereo not shown) [Example 56, 3-(2-(4-(((8-chloro-4-oxo-chromen-2-yl)(methyl)amino)methyl)phenoxy)ethoxy)cyclobutanecarboxylic acid] | 19.6
36 | CC1c2ccc(O)cc2CCN1c1cc(=O)c2cccc(Cl)c2o1 (stereo not shown) [Example 57, 8-chloro-2-(6-hydroxy-1-methyl-3,4-dihydro-1H-isoquinolin-2-yl)chromen-4-one] | 20
37 | O=C(O)C1CC(OCCOc2ccc3c(c2)CCN(c2cc(=O)c4cccc(Cl)c4o2)C3=O)C1 (stereo not shown) [Example 58, 3-(2-((2-(8-chloro-4-oxo-chromen-2-yl)-1-oxo-1,2,3,4-tetrahydroisoquinolin-6-yl)oxy)ethoxy)cyclobutanecarboxylic Acid] | 23.4
